# Measurements as given in patent publication US10966978B2, “Dose and regimen for HDM2-p53 interaction inhibitors” (Novartis AG, priority 2016, dated 2021).
# Like-named read-outs stand apart in the source and are kept apart here.
# Tested on: patients with advanced TP53 wild-type (WT) leukemias
# Excerpt: Patients with Ph+ ALL who show early markers of relapse in MRD surveillance can be considered for inclusion as long as other therapies such as TKIs are exhausted or cannot be given. • Tumor of the patient is TP53 wt characterized by, at a minimum, no mutations in exons 5, 6, 7 and 8, and the p53 status was obtained from a bone-marrow sample, collected no longer than 3 months before signing the main ICF. Safety and Tolerability Profile of Regimen 1B in Hematological Tumors
compound,measurement,setting,value
"COc1ncc(-c2nc3c(n2C(C)C)[C@H](c2ccc(Cl)cc2)N(c2cc(Cl)cn(C)c2=O)C3=O)c(OC)n1 [HDM201, (S)-5-(5-Chloro-1-methyl-2-oxo-1,2-dihydro-pyridin-3-yl)-6-(4-chloro-phenyl)-2-(2,4-dimethoxy-pyrimidin-5-yl)-1-isopropyl-5,6-dihydro-1H-pyrrolo[3,4-d]imidazol-4-one]",AE: Stomatitis,"Regimen 1B N = 6, All Grades",0 n (%)
same,AE: Subarachnoid Haemorrhage,"Regimen 1B N = 6, All Grades",0 n (%)
same,AE: Thrombocytopenia/Platelet Count Decreased,"Regimen 1B N = 6, All Grades",3 (50.0) n (%)
same,AE: Total,"Regimen 1B N = 6, All Grades",5 (83.3) n (%)
same,AE: Tumour Lysis Syndrome,"Regimen 1B N = 6, All Grades",0 n (%)
same,AE: Vomiting,"Regimen 1B N = 6, All Grades",0 n (%)
same,AE: Weight Decreased,"Regimen 1B N = 6, All Grades",0 n (%)
same,AE: White Blood Cell Count Decreased,"Regimen 1B N = 6, All Grades",0 n (%)
same,AE: Abdominal Discomfort,"Regimen 1B N = 6, Grade 3/4",0 n (%)
same,AE: Abdominal Pain,"Regimen 1B N = 6, Grade 3/4",0 n (%)
same,AE: Abdominal Pain Upper,"Regimen 1B N = 6, Grade 3/4",0 n (%)
same,AE: Acute Kidney Injury,"Regimen 1B N = 6, Grade 3/4",1 (16.7) n (%)
same,AE: Amylase Increased,"Regimen 1B N = 6, Grade 3/4",0 n (%)
same,AE: Anaemia,"Regimen 1B N = 6, Grade 3/4",2 (33.3) n (%)
same,AE: Arthralgia,"Regimen 1B N = 6, Grade 3/4",0 n (%)
same,AE: Asthenia,"Regimen 1B N = 6, Grade 3/4",0 n (%)
same,AE: Atrial Fibrillation,"Regimen 1B N = 6, Grade 3/4",0 n (%)
same,AE: Atypical Pneumonia,"Regimen 1B N = 6, Grade 3/4",0 n (%)
same,AE: Balanitis Candida,"Regimen 1B N = 6, Grade 3/4",0 n (%)
same,AE: Blood Alkaline Phosphatase Increased,"Regimen 1B N = 6, Grade 3/4",0 n (%)
same,AE: Blood Bilirubin Increased,"Regimen 1B N = 6, Grade 3/4",0 n (%)
same,AE: Blood Creatinine Increased,"Regimen 1B N = 6, Grade 3/4",0 n (%)
same,AE: Blood Phosphorus Increased,"Regimen 1B N = 6, Grade 3/4",0 n (%)
same,AE: Blood Uric Acid Increased,"Regimen 1B N = 6, Grade 3/4",0 n (%)
same,AE: Bone Marrow Failure,"Regimen 1B N = 6, Grade 3/4",0 n (%)
same,AE: C-Reactive Protein Increased,"Regimen 1B N = 6, Grade 3/4",0 n (%)
same,AE: Cardiac Failure,"Regimen 1B N = 6, Grade 3/4",0 n (%)
same,AE: Cellulitis,"Regimen 1B N = 6, Grade 3/4",1 (16.7) n (%)
same,AE: Chronic Graft Versus Host Disease,"Regimen 1B N = 6, Grade 3/4",0 n (%)
same,AE: Conjunctival Haemorrhage,"Regimen 1B N = 6, Grade 3/4",0 n (%)
same,AE: Constipation,"Regimen 1B N = 6, Grade 3/4",0 n (%)
same,AE: Cough,"Regimen 1B N = 6, Grade 3/4",0 n (%)
same,AE: Cystitis Viral,"Regimen 1B N = 6, Grade 3/4",0 n (%)
same,AE: Cytomegalovirus Infection,"Regimen 1B N = 6, Grade 3/4",0 n (%)
same,AE: Decreased Appetite,"Regimen 1B N = 6, Grade 3/4",0 n (%)
same,AE: Diarrhoea,"Regimen 1B N = 6, Grade 3/4",0 n (%)
same,AE: Dyspepsia,"Regimen 1B N = 6, Grade 3/4",0 n (%)
same,AE: Dyspnoea,"Regimen 1B N = 6, Grade 3/4",0 n (%)
same,AE: Epistaxis,"Regimen 1B N = 6, Grade 3/4",0 n (%)
same,AE: Fatigue,"Regimen 1B N = 6, Grade 3/4",0 n (%)
same,AE: Febrile Neutropenia,"Regimen 1B N = 6, Grade 3/4",2 (33.3) n (%)
same,AE: Gamma-Glutamyltransferase Increased,"Regimen 1B N = 6, Grade 3/4",0 n (%)
same,AE: General Physical Health Deterioration,"Regimen 1B N = 6, Grade 3/4",0 n (%)
same,AE: Gingival Bleeding,"Regimen 1B N = 6, Grade 3/4",0 n (%)
same,AE: Graft Versus Host Disease,"Regimen 1B N = 6, Grade 3/4",0 n (%)
same,AE: Haemoglobin Decreased,"Regimen 1B N = 6, Grade 3/4",0 n (%)
same,AE: Headache,"Regimen 1B N = 6, Grade 3/4",0 n (%)
same,AE: Hyperbilirubinaemia,"Regimen 1B N = 6, Grade 3/4",0 n (%)
same,AE: Hyperglycaemia,"Regimen 1B N = 6, Grade 3/4",0 n (%)
same,AE: Hyperkalaemia,"Regimen 1B N = 6, Grade 3/4",1 (16.7) n (%)
same,AE: Hyperphosphataemia,"Regimen 1B N = 6, Grade 3/4",0 n (%)
same,AE: Hyperuricaemia,"Regimen 1B N = 6, Grade 3/4",0 n (%)
same,AE: Hypoalbuminaemia,"Regimen 1B N = 6, Grade 3/4",0 n (%)
same,AE: Hypocalcaemia,"Regimen 1B N = 6, Grade 3/4",0 n (%)
same,AE: Hypokalaemia,"Regimen 1B N = 6, Grade 3/4",0 n (%)
same,AE: Hypomagnesaemia,"Regimen 1B N = 6, Grade 3/4",0 n (%)
same,AE: Hyponatraemia,"Regimen 1B N = 6, Grade 3/4",0 n (%)
same,AE: Hypophosphataemia,"Regimen 1B N = 6, Grade 3/4",0 n (%)
same,AE: Hypotension,"Regimen 1B N = 6, Grade 3/4",0 n (%)
same,AE: Infection,"Regimen 1B N = 6, Grade 3/4",0 n (%)
same,AE: Infective Glossitis,"Regimen 1B N = 6, Grade 3/4",0 n (%)
same,AE: Iron Overload,"Regimen 1B N = 6, Grade 3/4",0 n (%)
same,AE: Leukopenia,"Regimen 1B N = 6, Grade 3/4",0 n (%)
same,AE: Lip Oedema,"Regimen 1B N = 6, Grade 3/4",0 n (%)
same,AE: Lipase Increased,"Regimen 1B N = 6, Grade 3/4",0 n (%)
same,AE: Macular Oedema,"Regimen 1B N = 6, Grade 3/4",1 (16.7) n (%)
same,AE: Malaise,"Regimen 1B N = 6, Grade 3/4",0 n (%)
same,AE: Mouth Haemorrhage,"Regimen 1B N = 6, Grade 3/4",0 n (%)
same,AE: Nausea,"Regimen 1B N = 6, Grade 3/4",0 n (%)
same,AE: Neutropenia/Neutrophil Count Decreased,"Regimen 1B N = 6, Grade 3/4",1 (16.7) n (%)
same,AE: Oedema,"Regimen 1B N = 6, Grade 3/4",0 n (%)
same,AE: Oedema Peripheral,"Regimen 1B N = 6, Grade 3/4",0 n (%)
same,AE: Oral Disorder,"Regimen 1B N = 6, Grade 3/4",0 n (%)
same,AE: Pain In Extremity,"Regimen 1B N = 6, Grade 3/4",0 n (%)
same,AE: Pancytopenia,"Regimen 1B N = 6, Grade 3/4",1 (16.7) n (%)
same,AE: Pneumonia,"Regimen 1B N = 6, Grade 3/4",0 n (%)
same,AE: Pollakiuria,"Regimen 1B N = 6, Grade 3/4",0 n (%)
same,AE: Pyrexia,"Regimen 1B N = 6, Grade 3/4",0 n (%)
same,AE: Rash,"Regimen 1B N = 6, Grade 3/4",0 n (%)
same,AE: Rash Erythematous,"Regimen 1B N = 6, Grade 3/4",0 n (%)
same,AE: Rash Papular,"Regimen 1B N = 6, Grade 3/4",0 n (%)
same,AE: Rectal Haemorrhage,"Regimen 1B N = 6, Grade 3/4",0 n (%)
same,AE: Renal Failure,"Regimen 1B N = 6, Grade 3/4",0 n (%)
same,AE: Skin Exfoliation,"Regimen 1B N = 6, Grade 3/4",0 n (%)
same,AE: Stomatitis,"Regimen 1B N = 6, Grade 3/4",0 n (%)
same,AE: Subarachnoid Haemorrhage,"Regimen 1B N = 6, Grade 3/4",0 n (%)
same,AE: Thrombocytopenia/Platelet Count Decreased,"Regimen 1B N = 6, Grade 3/4",3 (50.0) n (%)
same,AE: Total,"Regimen 1B N = 6, Grade 3/4",5 (83.3) n (%)
same,AE: Tumour Lysis Syndrome,"Regimen 1B N = 6, Grade 3/4",0 n (%)
same,AE: Vomiting,"Regimen 1B N = 6, Grade 3/4",0 n (%)
same,AE: Weight Decreased,"Regimen 1B N = 6, Grade 3/4",0 n (%)
same,AE: White Blood Cell Count Decreased,"Regimen 1B N = 6, Grade 3/4",0 n (%)
same,AE: Abdominal Discomfort,"Regimen 2A N = 7, All Grades",0 n (%)
same,AE: Abdominal Pain,"Regimen 2A N = 7, All Grades",0 n (%)
same,AE: Abdominal Pain Upper,"Regimen 2A N = 7, All Grades",0 n (%)
same,AE: Acute Kidney Injury,"Regimen 2A N = 7, All Grades",1 (14.3) n (%)
same,AE: Amylase Increased,"Regimen 2A N = 7, All Grades",0 n (%)
same,AE: Anaemia,"Regimen 2A N = 7, All Grades",3 (42.9) n (%)
same,AE: Arthralgia,"Regimen 2A N = 7, All Grades",0 n (%)
same,AE: Asthenia,"Regimen 2A N = 7, All Grades",0 n (%)
same,AE: Atrial Fibrillation,"Regimen 2A N = 7, All Grades",0 n (%)
same,AE: Atypical Pneumonia,"Regimen 2A N = 7, All Grades",0 n (%)
same,AE: Balanitis Candida,"Regimen 2A N = 7, All Grades",0 n (%)
same,AE: Blood Alkaline Phosphatase Increased,"Regimen 2A N = 7, All Grades",0 n (%)
same,AE: Blood Bilirubin Increased,"Regimen 2A N = 7, All Grades",0 n (%)
